TGI data for 16 molecules are collected here from PubChem BioAssay (NCI).

Some test systems named below: SNB-75 CNS; SK-MEL-5 melanoma; TK-10 renal; MCF7 breast; SNB-19 CNS; NCI-H522 lung; MALME-3M melanoma; K-562 leukemia; ACHN renal; HCC-2998 colon.
Common to all, as to experiment: NCI anticancer screen, dose series, 48 h

Structures are written as SMILES.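 Protocol summary: plate cells (96-well), add compound at 5 concentrations, incubate 48 h, interpolate endpoints linearly. TGI is the concentration that stops growth completely.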 Where only a bound is given, the exact number is not on record here.

As to `COc1cccc2c1C(=O)c1c(O)c3c(c(O)c1C2=O)CC(O)(C(C)=O)CC3OC1OC(COC(C)=O)C(OC(C)=O)C(OC(C)=O)C1OC(C)=O` (stereo not given), the TGI in the assay on SNB-75 CNS is 27 µM; in the assay with SK-MEL-5 melanoma, greater than 100 µM; in the assay with TK-10 renal, 61.8 µM; in the assay with MCF7 breast it was greater than 100 µM; with SNB-19 CNS, 42.1 µM; in the assay on NCI-H522 lung it was greater than 100 µM. Further, the TGI in the assay on MALME-3M melanoma is greater than 100 µM; in the assay with K-562 leukemia it was greater than 100 µM; in the assay with ACHN renal, 87.6 µM.

Turning to `Cc1cc2nc3c(C#N)c4c(c(Cl)n3c2cc1C)CCC4`, the TGI in the assay with SNB-75 CNS was greater than 100 µM; with SK-MEL-5 melanoma it was 50.1 µM; with TK-10 renal it was 70.6 µM; in the assay on NCI-H522 lung, 32.5 µM; with MALME-3M melanoma, greater than 100 µM; in the assay on ACHN renal, 55.9 µM.

Regarding `CCOC(=O)C(C(=O)OCC)S(C)(=O)=O`, the TGI in the assay with SK-MEL-5 melanoma, in the assay with TK-10 renal, in the assay with HCC-2998 colon, in the assay with SNB-19 CNS, with NCI-H522 lung and with MALME-3M melanoma was greater than 100 µM each time. For the same molecule, the TGI in the assay with K-562 leukemia and in the assay with ACHN renal was greater than 100 µM throughout.

Take `O=C1NC(NNc2ccccc2)=N/C1=C\c1ccco1`: the TGI is greater than 100 µM in the assay on SNB-75 CNS; greater than 100 µM in the assay with SK-MEL-5 melanoma; 36.4 µM in the assay with TK-10 renal; 34 µM in the assay on MCF7 breast; 33 µM in the assay on HCC-2998 colon; greater than 100 µM with SNB-19 CNS. For the same molecule, the TGI with NCI-H522 lung was 27.8 µM; in the assay with MALME-3M melanoma it was 81.6 µM; in the assay on ACHN renal, 25.9 µM.

With `COc1c(N2CCCCC2)c2c(=O)c3ccccc3oc2c2c3ccccc3n(C)c12`, the TGI in the assay on SNB-75 CNS, with SK-MEL-5 melanoma, in the assay on TK-10 renal, in the assay with MCF7 breast, with HCC-2998 colon and in the assay on SNB-19 CNS was greater than 100 µM in each case. Besides, the TGI in the assay with MALME-3M melanoma, in the assay on K-562 leukemia and with ACHN renal was greater than 100 µM in each case.

As for `O=C(Cn1c2ccc(Br)cc2c2nc3ccccc3nc21)N1CCOCC1`, the TGI with SNB-75 CNS, in the assay with SK-MEL-5 melanoma, with TK-10 renal, in the assay on HCC-2998 colon, in the assay on SNB-19 CNS and in the assay with MALME-3M melanoma was greater than 100 µM throughout. Moreover, the TGI with K-562 leukemia and in the assay on ACHN renal was greater than 100 µM each time.

`N#Cc1c2c(c(Nc3cccc(C(F)(F)F)c3)n3c1nc1ccccc13)CCCC2`: the TGI in the assay on SNB-75 CNS was 57.3 µM; with SK-MEL-5 melanoma, greater than 100 µM; with TK-10 renal it was 44.4 µM; in the assay on NCI-H522 lung, 22.1 µM; with MALME-3M melanoma it was 85.7 µM; with ACHN renal, greater than 100 µM.

As to `COc1cc2cnc3c4cc(O)ccc4ccc3c2cc1OC`, the TGI with SNB-75 CNS is greater than 100 µM; in the assay on SK-MEL-5 melanoma it was greater than 100 µM; with TK-10 renal, greater than 100 µM; in the assay on HCC-2998 colon it was greater than 100 µM; with SNB-19 CNS, greater than 100 µM; in the assay with NCI-H522 lung it was 70.9 µM. For the same molecule, the TGI in the assay on MALME-3M melanoma, in the assay on K-562 leukemia and with ACHN renal was greater than 100 µM each time.

`Cc1cnc2c(c1)C(=O)N(c1ccc(Br)cc1)S2(=O)=O`: the TGI in the assay with SNB-75 CNS, in the assay with SK-MEL-5 melanoma, with TK-10 renal, with MCF7 breast, in the assay on HCC-2998 colon and in the assay with SNB-19 CNS was greater than 100 µM in each case. For the same molecule, the TGI with NCI-H522 lung, in the assay with MALME-3M melanoma and in the assay on ACHN renal was greater than 100 µM throughout.

With `O=S1(=O)OCCOS(=O)(=O)C1(Br)Br`, the TGI in the assay with SNB-75 CNS, in the assay on SK-MEL-5 melanoma, in the assay with TK-10 renal, in the assay with HCC-2998 colon, in the assay with SNB-19 CNS and with NCI-H522 lung was greater than 100 µM throughout. Besides, the TGI in the assay on MALME-3M melanoma and in the assay with K-562 leukemia was greater than 100 µM in each case.

Take `N#C/C(=C\c1ccccc1F)C(=O)c1ccccc1`: the TGI with SK-MEL-5 melanoma, in the assay with TK-10 renal, in the assay with HCC-2998 colon, in the assay on SNB-19 CNS, with NCI-H522 lung and in the assay on MALME-3M melanoma was greater than 100 µM throughout. In addition, the TGI in the assay on K-562 leukemia and with ACHN renal was greater than 100 µM each time.

`CN(C)C1(N(C)C)Oc2c(c(=O)n(C)c(=O)n2C)C(c2ccc(F)cc2)C1(F)F` (stereo not given): the TGI in the assay with SNB-75 CNS, in the assay with SK-MEL-5 melanoma, with TK-10 renal, with MCF7 breast, with HCC-2998 colon and in the assay with SNB-19 CNS was greater than 100 µM each time. The TGI in the assay on ACHN renal was greater than 100 µM.

For the molecule `Cc1ccc(C(CCO)CCO)nc1`, the TGI with SNB-75 CNS, in the assay with SK-MEL-5 melanoma, in the assay with TK-10 renal, in the assay on MCF7 breast, with HCC-2998 colon and in the assay on SNB-19 CNS was greater than 100 µM in each case. The TGI in the assay on NCI-H522 lung, in the assay on MALME-3M melanoma and in the assay with ACHN renal was greater than 100 µM each time.

On to `Cc1nc2c(n1Cc1ccc(F)cc1)C(=O)c1ccccc1C2=O`, for which the TGI was greater than 100 µM with SNB-75 CNS; 24.7 µM in the assay with SK-MEL-5 melanoma; greater than 100 µM with TK-10 renal; greater than 100 µM in the assay on HCC-2998 colon; greater than 100 µM in the assay on SNB-19 CNS; 26 µM with NCI-H522 lung. Also, the TGI was 31.7 µM in the assay with MALME-3M melanoma, 86.9 µM in the assay on K-562 leukemia and greater than 100 µM in the assay on ACHN renal.

With `COc1cc2c(cc1OC)-c1cc3cc(OC)c(OC)cc3c(C)[n+]1CC2` (tested in a mixture with another compound), the TGI was greater than 100 µM in the assay on SK-MEL-5 melanoma; greater than 100 µM in the assay on TK-10 renal; greater than 100 µM with MCF7 breast; 62.5 µM in the assay with HCC-2998 colon; greater than 100 µM with SNB-19 CNS; greater than 100 µM with NCI-H522 lung. Besides, the TGI with MALME-3M melanoma and in the assay with ACHN renal was greater than 100 µM in each case.

On to `CC(=O)c1ccc(Nc2nc3ccccc3c3occc23)cc1`, for which the TGI in the assay on SK-MEL-5 melanoma is 28.2 µM; with TK-10 renal, 35.8 µM; with MCF7 breast, 56.6 µM; in the assay on HCC-2998 colon, 28.4 µM; in the assay with SNB-19 CNS it was greater than 100 µM; in the assay with NCI-H522 lung, 9.12 µM. The TGI with MALME-3M melanoma stood at 63.4 µM; in the assay with ACHN renal, 60.2 µM.
